Key:
Epithelial cells = assay: Cellular viability with CA and CA-R mixes; type: cell-based
From the text: Magnification of 10×, scale bar=100 μm, dapi in blue and factin in red.
Cellular viability. To be applicable in biological context, the toxicity of the CA and the combined CA-R mixes were verified. Epithelial cells were cultivated in media supplemented with various CA-R mixes and acidified at pH 6. Both the cellular viability and morphology was studied over a 5 day period.

[1] = cited from earlier work

## O=c1[nH]c(=O)[nH]c(=O)[nH]1 [CA, cyanuric acid]
Epithelial cells
  toxicity in vitro: low toxicity
Epithelial cells; after 5 days, pH 6, CA 20 mM alone or CA 20 mM plus the named CA-R (CAC2NH2 30 mM, CAC6NH2 12 mM)
  viability: 91±2%
[1]
  pKa: 6.9

Source: US20260224732A1, “BIOPOLYMER PROTECTED OLIGONUCLEOTIDES FOR DRUG DELIVERY” (THE ROYAL INSTITUTION FOR THE ADVANCEMENT OF LEARNING / …, priority 2023, published 2026)
